According to BigSolDB 2.1:

CCS(=O)(=O)O.COC(=O)c1ccc2c(C(=Nc3ccc(N(C)C(=O)CN4CCN(C)CC4)cc3)c3ccccc3)c(O)[nH]c2c1
solubility (mole fraction)
Conditions | in DMAc | in DMF | in acetone | in acetonitrile | in dichloromethane | in ethanol | in isopropanol | in methanol | in n-butanol | in n-propanol
278.15 K | 0.000745 | 0.000994 | 3.21e-06 | 9.42e-06 | 0.000125 | 0.00015 | 1.43e-05 | 0.00126 | 1.21e-05 | 4.29e-05
283.15 K | 0.000878 | 0.00129 | 4.13e-06 | 1.42e-05 | 0.000148 | 0.000179 | 1.93e-05 | 0.00149 | 1.44e-05 | 6.92e-05
288.15 K | 0.0011 | 0.00145 | 4.97e-06 | 1.75e-05 | 0.000161 | 0.000214 | 2.57e-05 | 0.00169 | 1.82e-05 | 8.1e-05
293.15 K | 0.00129 | 0.00165 | 5.92e-06 | 2.17e-05 | 0.000175 | 0.000253 | 3.39e-05 | 0.00203 | 2.33e-05 | 0.000103
298.15 K | 0.00156 | 0.00182 | 6.97e-06 | 2.89e-05 | 0.000199 | 0.000298 | 4.44e-05 | 0.00238 | 2.7e-05 | 0.000131
303.15 K | 0.00186 | 0.00206 | 8.32e-06 | 3.83e-05 | 0.00022 | 0.00035 | 5.75e-05 | 0.00281 | 3.54e-05 | 0.000156
308.15 K | 0.00214 | 0.00239 | 9.74e-06 | 4.28e-05 | 0.00025 | 0.0004 | 7.4e-05 | 0.00341 | 4.5e-05 | 0.000207
313.15 K | 0.00258 | 0.00271 | 1.08e-05 | 5.13e-05 | – | 0.000473 | 0.0001 | 0.00413 | 5.17e-05 | 0.000241
318.15 K | 0.00285 | 0.00304 | 1.3e-05 | 6.02e-05 | – | 0.000546 | 0.000118 | 0.00467 | 7.26e-05 | 0.000317
323.15 K | 0.00316 | 0.00336 | 1.62e-05 | 6.85e-05 | – | 0.000627 | 0.00015 | 0.00524 | 8.92e-05 | 0.000384
